Measurements published in patent publication US10406227B2, “Photoactivated molecules for light-induced modulation of the activity of electrically excitable cells and methods of using same” (University of Southern California, priority 2012, dated 2019).

What was measured:
[1] = test system: whole-mount retinas from RCS rats; assay: Whole-mount retina multi-electrode array recording; assay type: cell-based, rat
From the text: FIGS. 14A-14B depicts data from whole-mount retinas from RCS rats. […] Each bin represents the frequency of spikes for 1 second. Before Rubpy treatment (14A), illumination at 480 nm elicited minimal change in spike frequency. […] Downward arrows mark the time of 100 ms (1st) and 1 second (2nd to fourth) light stimuli.
The retina will be freshly dissected from Royal College of Surgeons (RCS) rats (9 months' or older to ensure total loss of photoreceptors). The whole-mount retina will then be placed onto a multi-electrode array with the ganglion cell layer side facing the electrodes and is held down on the array using a lightly weighted porous membrane. Extracellular field potentials are recorded from 15 or 75 μm diameter electrodes using an MEA1060-Up amplifier and MC Rack software (Multi-Channel Systems). The activity of the retinal in response to illumination is monitored before and after PVN incubation. The retina is continuously perfused with oxygenated (95% O2, 5% CO2), heated (32C) Ames' Medium for baseline activity. The retina is then perfused with Ames' Medium containing PVN for 30 min to 1 hr, followed by 10 min wash with regular Ames' Medium before recording in Ames' Medium with 5-10 mM ascorbate. The retina will be illuminated by white LED light through a bandpass excitation filter (460-500 nm) with durations of 100 μs, 1 ms, 10 ms, 100 ms, 1 s and 30 s. […]

INS and HEK293T cells = assay: Time course of light-induced membrane potential change in single cells (patch clamp); assay type: cell-based
Method: Membrane potential was monitored using whole cell patch clamp in current-clamp mode. Cultured cells (INS and HEK293) were plated on a glass-bottomed culture dishes 1-3 days prior to recording. Cells were incubated in standard extracellular solution with or without 10 μM RubpyC17 compound for approximately 1.5-2 minutes, then washed and incubated with standard extracellular solution without additional supplementation, or with 2-5 mM ascorbate, 100 μM sodium ferrocyanide, or 100-200 μM potassium ferricyanide, as indicated. The chamber was transferred to the microscope stage. Extracellular solution consisted of 140 mM NaCl, 2.8 mM KCl, 10 mM HEPES, 1 mM MgCl2, 2 mM CaCl2, 10 mM glucose, pH adjusted to 7.3, and osmolarity adjusted to 300-310. Conventional whole-cell patch clamp recordings were performed with an EPC-9 amplifier and Pulse software (HEKA Electronics). Pipette electrodes of 1.8-3.5 Mohm were fire polished before use. Intracellular solution consisted of: 145 mM KCl, 10 mM NaCl, 1 mM MgCl2, 1 mM EGTA, 2 mM ATP, 0.3 mM GTP and 10 mM HEPES, pH adjusted to 7.3 and osmolarity adjusted to 290-300 mOsm. To monitor changes in membrane voltage/potential, cells were patch clamped in current-clamp mode. Access resistances were in the range of 3-8 Mohm. Using Pulse, membrane potentials were recorded before, during and after illumination by the argon ion laser at 488 nm with an irradiance value of 0.458 mE s^−1 m^−2 or by a xenon lamp source through a 470/40 nm bandpass excitation filter with an irradiance value of 0.480 mE s^−1 m^−2. The duration of illumination varied and the timing is indicated by bars on the figures.
It was discovered that luminescent cells undergo depolarization when illuminated for 25 seconds or longer when reductants (e.g., ascorbate) are present or for 10 seconds or longer when oxidants (e.g., ferricyanide) are present (FIG. 2A). Other oxidants or reductants are used in several embodiments, such as those that are, normally present (or biologically compatible) in the environment of a certain target tissue. In several embodiments, it is possible that light-induced depolarization or hyperpolarization amplitude or rate is controlled by varying illumination time or intensity.
To reach a maximum effect, the light-triggered depolarization in RubpyC17-treated cells requires on the order of 30 seconds of continuous illumination at 0.46-0.48 mE s−1 m2 (FIGS. 2B-F) The time course observed is dependent on several factors, and may be greater or lesser during in vivo applications. One, it is related to the probability of photon absorption per unit time by membrane-associated RubpyC17, which depends on the concentration of RubpyC17, the partitioning into the membrane, and the photon flux. […]

RCS rats = assay: Extracellular recording from superior colliculus after intravitreal injection; assay type: in vivo, rat
From the text: This finding was reproduced in 3 of 3 RCS rats injected with Rubpy-C17, and in 2 of 2 control (sham injection) RCS rats.

[Ru(bpy)2(bpy-C17)](PF6)2 [RubpyC17]
spike frequency on illumination ([1]; 100 micromolar for 30 minutes, 480 nm): spike frequency increased | light-induced action potential firing ([1]; photoreceptor-degenerate retina): respond to illumination by firing action potentials | continuous illumination to reach maximum depolarization (INS and HEK293T cells; 0.46-0.48 mE s−1 m2): ~30 s | illumination duration giving membrane potential change (INS and HEK293T cells; oxidants (e.g., ferricyanide) present): ≥ 10 s | reversibility of light-induced depolarization (INS and HEK293T cells; presence of reductants): appears to be irreversible | illumination duration giving membrane potential change (INS and HEK293T cells; reductants (e.g., ascorbate) present): ≥ 25 s | RCS rats showing light-evoked superior colliculus activity (RCS rats; intravitreal, final concentration 100 μM): 3 of 3 | light-evoked electrical activity in superior colliculus (RCS rats; intravitreal, final concentration 100 μM, 30 minutes after injection): elicited reproducible and stereotypical electrical activity | persistence of light-induced SC electrical responses after injection (RCS rats; single eye injection): up to 3 days
